This data set is described as follows: Solubility measurement in organic solvents. Format: physicochemical. The note with it: for Solubility in 3-MBA: amount (g) of compound completely dissolved in 3-methoxybutyl acetate; for Solubility in CH: amount (g) of compound completely dissolved in cyclohexanone; for Solubility in DPM: amount (g) of compound completely dissolved in dipropylene glycol methyl ether; for Solubility in EEP: amount (g) of compound completely dissolved in ethyl-3-ethoxy propionate; for Solubility in PGMEA: amount (g) of compound completely dissolved in propylene glycol methyl ether acetate. As to the method: The solubilities of Irgacure OXE-02 (Ciba Specialty Chemical) of Comparative Example 1, the compounds of Comparative Examples 2-3, and the compound of Example 1, which contains oxime ester moieties, were measured in various solvents, including propylene glycol methyl ether acetate (PGMEA), dipropylene glycol methyl ether (DPM), 3-methoxybutyl acetate (MBA), ethyl-3-ethoxy propionate (EEP) and cyclohexanone (CH). The solubility of each of the compounds was determined by measuring the amount (g) of the compound completely dissolved in the corresponding solvent.

For the molecule `CC(=O)O/N=C(\C)c1ccc(-c2nc(C(Cl)(Cl)Cl)nc(C(Cl)(Cl)Cl)n2)cc1` [Comparative Example 2, 2,4-trichloromethyl-(4′-acetylphenylacetoxime)-6-triazine], the “Solubility in 3-MBA” value came to 5 g, the “Solubility in CH” value worked out at 25 g, the “Solubility in DPM” value is listed as 3 g and the “Solubility in EEP” value was 6 g. Also, the “Solubility in PGMEA” value worked out at 7 g.
In the same order, the values of `CCn1c2ccc(C(=O)c3ccccc3C)cc2c2cc(/C(C)=N/OC(C)=O)ccc21` [Comparative Example 1] are 10 g, 40 g, 5 g, 10 g and 12 g.
For `CCn1c2ccc(C(=O)c3ccc(OCC4COC(C)(C)O4)cc3)cc2c2cc(/C(CC(c3ccccc3)N(OC(C)=O)C(C)=O)=N/OC(C)=O)ccc21` (centres unmarked) [Example 1], in that order: 13 g, 60 g, 7 g, 15 g and 20 g.
For `CC(=O)O/N=C/c1ccc(-c2ccc(-c3nc(C(Cl)(Cl)Cl)nc(C(Cl)(Cl)Cl)n3)cc2)cc1` [Comparative Example 3, 2,4-trichloromethyl-(4′-formylbiphenylacetoxime)-6-triazine], in that order: 5 g, 20 g, 2 g, 5 g and 7 g.
